# Results as given in patent publication US10258613B2, “Compositions for treating retinal degeneration and methods of production and use thereof” (The Board of Regents of the University of Oklahoma, priority 2014, dated 2019).
# Entries after “also recorded” stand apart in the source; their conditions may differ.
# Legend:
# [1] = Serum T3 levels by mouse/rat T3 ELISA in anti-thyroid- or T3-treated mice; format: in vivo; details: for increase of serum T3 levels compared with untreated controls: around 24 hours after last injection; for concentration at 24 h: mouse, serum, sc, 0.1 μg/g body weight, T3 0.1 μg/g s.c. once each day 30 days from P1, around 24 hours after last injection
# Experimental: (§1) For anti-thyroid treatment, mother Rpe65^−/− and cpfl1 mice were treated with methimazole (MMI) (Sigma-Aldrich, St. Louis, Mo., 0.05% wt/vol) and sodium perchlorate monohydrate (PM) (Sigma-Aldrich, 1.0% wt/vol) in drinking water, beginning on the day they delivered pups and the treatment (for both mother and pups) continued for 30 days. In a separate experiment, post-weaning cpfl1 mice received MMI and PM treatment for 30 days, beginning on P25. For T3 treatment, Cngb3^−/− and Gucy2e^−/− mice received T3 (Sigma-Aldrich, 0.1 μg/g body weight, subcutaneous injection once each day) or vehicle (saline) for 30 days, beginning on P1. At the end of the treatments, blood samples were collected for measurements of serum T3 levels, and eyes and retinas were collected for evaluating cone density and cone specific protein/mRNA expression. For T3-treated mice, blood samples were collected around 24 hours after the last injection.
# Serum triiodothyronine (T3) levels were analyzed using a mouse/rat T3 ELISA kit (Calbiotech Inc., Spring Valley, Calif.) with a total T3 detection limit at 0.25 ng/ml. Briefly, 25 μl of serum samples and standards with different T3 concentrations were added into the assigned wells, the assays were performed by following the manufacturer's instructions, and the absorbance of each well was read at 450 nm (SPECTRAMAX® 190 Microplate Spectrophotometer, Molecular Devices LLC, Sunnyvale, Calif.). The standard curve was generated by using a three-parameter exponential non-linear regression in SIGMAPLOT® software (Systat Software, Inc., San Jose, Calif.), and the sample T3 concentration was then calculated according to the three-parameter exponential equation.
# Weri RB-1 cell line = assay: M-opsin and S-opsin expression (quantitative RT-PCR) after T3 with or without TR antagonists; format: cell-based; details: Weri cells; for inhibition of T3-induced M-opsin expression / inhibition of the effects of T3 treatment on M-opsin and S-opsin expression: dose-dependent pattern
# Experimental: (§2) The cone precursor Weri RB-1 cell line was used to determine the antagonistic activity of the TR antagonists, NH-3 and 1-850. Expression levels of M-opsin and S-opsin in Weri cells following T3 treatment in the presence and absence of TR antagonists were analyzed by quantitative RT-PCR. […] NH-3, 1-850, or vehicle was delivered to the eye by intravitreal injection at postnatal day 5 (P5), and retinas and eyes were collected on P24. Cone survival was evaluated by examining cone density on retinal whole mounts and retinal sections by immunohistochemical approaches.
# [2] = tested on: rod photoreceptors in Cngb3−/− mice; assay: Retinal morphometric analysis (ONL nuclei count, ONL thickness) after T3 treatment; format: in vivo, mouse
# Experimental: as §1
# (§3) Mouse retinal whole mounts or cross sections were prepared for immunohistochemical analysis as described previously (Ding et al., 2009; and Xu et al., 2011). […] The cornea and lens were then removed, and the eyes were fixed in 4% PFA in PBS (vol/vol) at room temperature for another 4-6 hours. […] Paraffin sections (5 μm thickness) passing vertically through the retina (along the vertical meridian passing through the optic nerve head) were prepared using a Leica microtome.
# (§4) Retina cross sections labeled with DAPI (Vector Laboratory Inc., Burlingame, Calif.) were used for morphometric analysis to evaluate outer nuclear layer (ONL) integrity/rod survival as described previously (Xu et al., 2012). In each hemisphere, the number of nuclei in the ONL and the thickness of the ONL were measured at 0.24 mm intervals in nine defined areas, starting at the optic nerve head and extending along the vertical meridian toward the dorsal and ventral ora serrata. The mean number of nuclei and ONL thickness at the dorsal and ventral locations was then calculated. In each experimental group, two-three sections from each of the retinas of three-four mice were measured. The averages of the measurements in each location were plotted, and the measurements in each hemisphere were analyzed and graphed using GraphPad Prism software (GraphPad Software, San Diego, Calif.).
# [3] = tested on: rod photoreceptors in Gucy2e−/− mice; assay: as above; format: in vivo, mouse
# Experimental: as §1, §3, §4
# cones = details: mice; effect reversed by deletion of TRβ2 gene; cited from earlier work
# cones in Gucy2e−/− mice = assay: Cone density by immunofluorescence labeling after T3 treatment; format: in vivo, mouse
# Experimental: as §1, §3
# (§5) Immunohistochemical labeling of cones using antibodies against peanut agglutinin (PNA), cone opsin, cone arrestin (CAR), and guanine nucleotide-binding protein G(t) subunit alpha-2 (GNAT2) was performed as described previously (Ding et al., 2009). Briefly, retinal whole mounts or sections were blocked in Hank's balanced salt solution containing 5% bovine serum albumin (BSA) and 0.5% Triton-X 100 for 1 hour at room temperature. Primary antibody incubation (anti-M-opsin, 1:500; anti-S-opsin, 1:500; anti-CAR, 1:500; and anti-GNAT2, 1:500) was performed at room temperature for 1 hour. Following ALEXA FLUOR®-488 or -568 (Molecular Probes, Inc., Eugene, Oreg.) or FITC-conjugated secondary antibody incubation and rinses, slides were mounted and cover-slipped. PNA immunohistochemistry was performed using biotinylated PNA (1:50) and streptavidin-FITC (1:200). Fluorescent signals were imaged using an Olympus AX70 fluorescence microscope (Olympus Corp., Center Valley, Pa.) with QCapture imaging software (QImaging Corp., Surrey, BC, Canada) or an Olympus IX81-FV500 confocal laser scanning microscope (Olympus, Melville, N.Y.) (using excitation wavelengths of 543 nm for ALEXA FLUOR®-568 and 488 nm for FITC) and FLUOVIEW® imaging software (Olympus, Melville, N.Y.). Evaluation of cone density on retinal whole mounts and retinal cross-sections was performed as described previously (Xu et al., 2011; and Komeima et al., 2006). For retinal whole mounts, images were taken using a 40× objective on an Olympus microscope, approximately 1.0 mm from the optic nerve in the center of each quadrant (FIG. 1). Image scale was calibrated and cones were counted in four regions, each with dimensions of 317 μm×317 μm, using ImageJ software (ImageJ software website from National Institutes of Health, Bethesda, Md.). Cone density on retinal cross section was evaluated by counting the number of cones present in the dorsal and ventral areas. The averages of the counts were analyzed and graphed using GraphPad Prism software (GraphPad Software, San Diego, Calif.).
# cones in Cngb3−/− mice = assay: as above; format: in vivo, mouse
# Experimental: as §1, §3, §5
# cones in Rpe65−/− mice = assay: Cone density after intravitreal injection of TR antagonists; format: in vivo, mouse; details: for cone death, in words: intravitreal delivery; for cone density increase: intravitreal injection at P5 (1.0 μl of 5 mM NH-3 or 10 mM 1-850), collected P24; for cone protection, in words: intravitreal injection at P5, P24, PNA staining
# Experimental: The cornea and lens were then removed, and the eyes were fixed in 4% PFA in PBS (vol/vol) at room temperature for another 4-6 hours. […] Paraffin sections (5 μm thickness) passing vertically through the retina (along the vertical meridian passing through the optic nerve head) were prepared using a Leica microtome.
# Briefly, retinal whole mounts or sections were blocked in Hank's balanced salt solution containing 5% bovine serum albumin (BSA) and 0.5% Triton-X 100 for 1 hour at room temperature. Primary antibody incubation (anti-M-opsin, 1:500; anti-S-opsin, 1:500; anti-CAR, 1:500; and anti-GNAT2, 1:500) was performed at room temperature for 1 hour. […] PNA immunohistochemistry was performed using biotinylated PNA (1:50) and streptavidin-FITC (1:200). […] For retinal whole mounts, images were taken using a 40× objective on an Olympus microscope, approximately 1.0 mm from the optic nerve in the center of each quadrant (FIG. 1). […] Cone density on retinal cross section was evaluated by counting the number of cones present in the dorsal and ventral areas. The averages of the counts were analyzed and graphed using GraphPad Prism software (GraphPad Software, San Diego, Calif.).
# as §2
# [4] = T3 0.1 μg/g s.c. daily 30 days from P1
smiles,measurement,setting,value
"N[C@@H](Cc1cc(I)c(Oc2ccc(O)c(I)c2)c(I)c1)C(=O)O [T3, Triiodothyronine]",increase of serum T3 levels compared with untreated controls,[1]; Cngb3−/− mice,about 8 fold
same,increase of serum T3 levels compared with untreated controls,[1]; Gucy2e−/− mice,about 6 fold
same,concentration at 24 h,[1]; Cngb3−/− mice,3.85 ± 0.55 nM
same,concentration at 24 h,[1]; Gucy2e−/− mice,3.43 ± 0.48 nM
same,M-opsin expression,Weri RB-1 cell line; T3 treatment,increased M-opsin expression
same,S-opsin expression,Weri RB-1 cell line; T3 treatment,decreased S-opsin expression
same,reduction of average number of nuclei in the ONL vs untreated controls,[2]; T3 30 days,about 30%
same,"rod photoreceptor viability, in words",[2]; T3 30 days from P1,causes rod degeneration
same,reduction of average number of nuclei in the ONL vs untreated controls,[3]; T3 30 days,about 30%
same,"rod photoreceptor viability, in words",[3]; T3 30 days from P1,causes rod degeneration
same,cone viability,cones,cause cone death
same,reduction of density of cones labeled by CAR vs untreated controls,cones in Gucy2e−/− mice; [4],about 30%
same,reduction of density of cones labeled by PNA vs untreated controls,cones in Gucy2e−/− mice; [4],about 30%
same,reduction of density of cones labeled by cone opsin vs untreated controls,cones in Gucy2e−/− mice; [4],about 30%
same,"cone degeneration / cone density, in words",cones in Gucy2e−/− mice; T3 30 days from P1,significantly increased; also recorded: significantly diminished cone density; also recorded: deteriorated cones
same,cone density decrease,cones in Gucy2e−/− mice; summary statement,about 40%
same,reduction of CAR-labeled cones vs untreated,cones in Cngb3−/− mice; [4],about 40%
same,reduction of PNA-labeled cones vs untreated,cones in Cngb3−/− mice; [4],about 30%
same,M-opsin labeled-cones vs untreated controls,cones in Cngb3−/− mice; T3 30 days from P1,greatly reduced
same,S-opsin labeled-cones vs untreated controls,cones in Cngb3−/− mice; T3 30 days from P1,greatly reduced
same,"cone degeneration / cone density, in words",cones in Cngb3−/− mice; T3 30 days from P1,significantly increased; also recorded: significantly reduced; also recorded: deteriorated cones
same,cone density decrease,cones in Cngb3−/− mice; summary statement,about 40%
O=C(C=C1CCN(c2ccc([N+](=O)[O-])cc2)CC1)NNC(=O)Nc1cccc(C(F)(F)F)c1 [1-850],"cone death, in words",cones in Rpe65−/− mice,reduced cone death
same,cone density increase,cones in Rpe65−/− mice,about 35%
same,"cone protection, in words",cones in Rpe65−/− mice,protected cones
same,inhibition of T3-induced M-opsin expression,Weri RB-1 cell line,inhibited T3-induced M-opsin expression
same,inhibition of the effects of T3 treatment on M-opsin and S-opsin expression,Weri RB-1 cell line,inhibited
Cc1cc(OCC(=O)O)cc(C)c1Cc1cc(C#Cc2ccc([N+](=O)[O-])cc2)c(O)c(C(C)C)c1 [NH-3],"cone death, in words",cones in Rpe65−/− mice,reduced cone death
same,cone density increase,cones in Rpe65−/− mice,about 35%
same,"cone protection, in words",cones in Rpe65−/− mice,protected cones
same,inhibition of T3-induced M-opsin expression,Weri RB-1 cell line,inhibited T3-induced M-opsin expression
same,inhibition of the effects of T3 treatment on M-opsin and S-opsin expression,Weri RB-1 cell line,inhibited
